Experimental data from PMC4322620 (Frontiers in Pharmacology, 2015).

Experiments:
[1] = tested on: acute thermal pain; conditions: mouse, in vivo, ip, 4 mg/kg
[2] = tested on: thermal pain; conditions: mouse, in vivo, ip, 4 mg/kg

Structure (SMILES): CC12CC3CC(C)(C1)CC(N)(C3)C2 [Memantine]
- Tail flick latency [1]: 4.836 ± 0.264 s
- Hot plate (latency to hindlimb response) [2]: 7.9 ± 0.49 s
